Assays:
TREM-1 = test: NF-kB activity measurement (nuclear p50/p65 ELISA) in neutrophils; format: cell-based, human; conditions: LPS 0.1 μg/mL with or without αTREM-1; peptide 30 μg/mL
Method: (C) NF-κB nuclear translocation: ELISA of nuclear p50 and p65 NF-kB subunits of neutrophils treated for 2 hours.
Stimulated cells were collected, nuclear extracts obtained by nuclear extraction kit and NFkB activity measured with human p50/p65 combo transcription factor assay kit (Cayman Chemical) following the manufacturers' instructions.

male Balb/c mice = test: Caecal ligation and puncture (CLP) polymicrobial sepsis model; format: in vivo, mouse
Method: Adult male Balb/c mice (20-23 g) were subjected to caecal ligation and puncture under isoflurane anaesthesia and were randomly grouped (n=5-10 per group) to receive a single LR17 (100 μg in 0.2 mL NaCl 0.9%), scrambled-LR17 ([…] in 0.2 mL NaCl 0.9%), or 0.2 mL NaCl 0.9% i.p. injection. After 24 hours, animals were killed under anaesthesia. Results are mean±SD. p values are *p<0.05, **p<0.01, ***p<0.001 compared with control animals.
(A-B) Adult male Balb/c mice (20-23 g) were subjected to caecal ligation and puncture under isoflurane anaesthesia and were randomly grouped (n=25-40 per group) to receive a LR17, scrambled-LR17, or 0.2 mL NaCl 0.9% i.p. injection at indicated times. Survival was monitored over 1 wk and analyzed by Log Rank test.
Male Balb/c mice (4-6 weeks) were anesthetized with isoflurane. The cecum was exposed through a 1.0 cm abdominal midline incision and subjected to a ligation of the distal half followed by one puncture with a G21 needle. A small amount of stool was expelled from the puncture to ensure patency. The cecum was replaced into the peritoneal cavity and the abdominal incision closed in two layers. After surgery, all mice were injected s.c. with 0.5 mL of 0.9% NaCl solution for fluid resuscitation. The animals were randomly grouped and treated LR17 or LR17-scrambled as control in 250 μL 0.9% NaCl solution and administered i.p. In order to determine the effect of various doses of LR17 at different times, mice were treated with 50, 100 or 200 μg of LR17 at H1 after surgery, or with 3 injections of 100 μg at 2, 6 and 24 hours or with 100 μg in one injection at 24 hours after CLP and then monitored for survival. Five additional animals per group were killed under anaesthesia at 24 h after CLP for the determination of bacterial count and cytokines levels. Peritoneal lavage fluid was obtained using 2 mL RPMI 1640 (EuroBio), and blood was collected by cardiac puncture. Concentrations of plasma cytokines were determined by ELISA (R&Dsystems). For the assessment of bacterial counts, blood and crushed spleen were plated in serial log dilutions on tryptic soy supplemented with 5% sheep blood agar plates. After plating, tryptic soy agar plates were incubated at 37° C. aerobically for 24 h and anaerobically for 48 h. Results are expressed as CFU per ml of blood or per gram of spleen.

“LQEEDAGEYGCMVDGAR (listed as Homo sapiens) [LR17]” was tested, and the NF-κB translocation (TREM-1) was “decreased”, the “plasma IL-6 and IL-10 concentrations” value (male Balb/c mice; 100 μg i.p. 2 hours after surgery, 24 hours after surgery) was “decreased” and the “repeated injections versus single dose administration” value (male Balb/c mice; 3 injections of 100 μg at 2, 6 and 24 hours) was “not superior”. For the same sequence, the “protection against lethality (survival)” value (male Balb/c mice; 50, 100 or 200 μg, also administered 24 h after onset of sepsis, survival over 1 wk, Log Rank test) was “dose-dependent significant protection”, the “septicaemia (blood bacterial counts)” value (male Balb/c mice; 24 hours) was “almost completely prevented septicaemia” and the “IL-6 and IL-10 in broncho-alveolar lavage fluid and peritoneal lavage fluid” value (male Balb/c mice; 24 hours after surgery) was “decreased”. For the same sequence, the lung histological alterations (male Balb/c mice; 24 hours after the CLP) was “attenuated”, the “cell infiltration in peritoneum and alveolar space” value (male Balb/c mice; mouse, in vivo) was “reduced” and the “coagulation abnormalities (D-dimer and TATc plasma and alveolar concentrations)” value (male Balb/c mice; mouse, in vivo) was “prevented”. For the same sequence, the “plasma levels of C5a, IL-1ra, IL16, MCP-1, MIP-la, MIP-2 (cytokine array)” value (male Balb/c mice; mouse, in vivo) was “decreased concentration”.

— US9815883B2, “Inhibiting peptides derived from TREM-like transcript 1 (TLT-1) and uses thereof” (Institut National de la Sante et de la Recherche Medicale …, priority 2010, dated 2017)
